Data: patent EP1994938A1, “New lipoglycodepsipeptide compositions” (priority 2007, dated 2008)

Assays:
[1] = fat emulsion formulation with an oil phase of 8%; cited from earlier work
[2] = test system: Streptococcus spp., Staphylococcus spp. and Enterococcus spp.; settings: including antibiotic resistant strains (VRE, MRSA); cited from earlier work
[3] = test system: Enterococcus faecalis ATCC 29212; test: Broth microdilution MIC (CLSI), Ca2+ adjusted Mueller Hinton broth with 4% human serum albumin; type: cell-based
Method: (§1) Herein, the minimum inhibitory concentration for the growth inhibition was determined by cultivation of the bacteria in Ca^2+ adjusted Mueller Hinton broth (broth microdilution method) according to the CLSI (previously NCCLS) rules (National Committee for Clinical Laboratory Standards. 2003. Methods for dilution antimicrobial susceptibility tests for bacteria that grow aerobically; approved standard - 6th ed. Document M7-A6. Clinical and Laboratory Standards Institute, Wayne, PA, USA). […] The Gram-positive strains tested for the cultivation methods were: • Staphylococcus aureus ATCC 29213 • Enterococcus faecalis ATCC 29212
(§2) The following inocula were incubated: Table 3

[4] = test system: Staphylococcus aureus ATCC 29213; test: as above; type: cell-based
Method: as §1, §2

ramoplanin
effectiveness in septicaemia mouse models [1]: effective
general MICs (Minimal Inhibition Concentrations) [2]: below 1 µg/ml
Antibiotic activity (MIC) ([3]; Ramoplanin : SBE-β-CD 1:0): 0.5 µg/mL
Antibiotic activity (MIC) ([3]; Ramoplanin : SBE-β-CD 1:2): 0.5 µg/mL
Antibiotic activity (MIC) ([3]; Ramoplanin : SBE-β-CD 1:10): 0.5 µg/mL
Antibiotic activity (MIC) ([4]; Ramoplanin : SBE-β-CD 1:0): 0.5 µg/mL
Antibiotic activity (MIC) ([4]; Ramoplanin : SBE-β-CD 1:2): 0.5 µg/mL
Antibiotic activity (MIC) ([4]; Ramoplanin : SBE-β-CD 1:10): 0.5 µg/mL
